US10253002B2, “Compounds and methods of treating infections” (Neoculi Pty Ltd., priority 2013, dated 2019)
Values after ≈ are worked out from the molar mass of the structure shown. Values joined by “and” are separate entries in the source; they are usually repeats but may differ in a detail not shown here. Equal values may be shown once.

How the values were obtained:
Assay in all cases: Broth microdilution MIC, Example 7 (NCL812 and analogues)
VRE = type: cell-based, Enterococcus spp.; conditions: for MIC (μg/ml) at 24 hours, VRE 1: VRE 1, 24 hours; for MIC (μg/ml) at 24 hours, VRE 2: VRE 2, 24 hours
Method in brief: (§1)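 Turbidity read visually and then at 600 nm defined the MIC (μg/ml), comparing drug-containing wells with a growth-control well lacking antimicrobial. Testing followed the CLSI broth microdilution method, in duplicate, using two strains per organism group.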

MRSA = type: cell-based, Staphylococcus aureus; conditions: for MIC (μg/ml) at 24 hours, MRSA 1: MRSA 1, 24 hours; for MIC (μg/ml) at 24 hours, MRSA 2: MRSA 2, 24 hours
Method in brief: as §1

Escherichia coli = type: cell-based; conditions: E. coli, 24 hours
Pseudomonas aeruginosa = type: cell-based; conditions: P. aeruginosa, 24 hours

Which “MIC (μg/ml) at 24 hours, VRE 1” value (VRE) does the source give for `Nc1nc(N/N=C/c2ccc(O)cc2)nc(N/N=C/c2ccc(O)cc2)n1` [NCL211] here?
Its value is >128 µg/mL.

And the “MIC (μg/ml) at 24 hours, VRE 2” value (VRE)?
The value was >128 µg/mL.

And the “MIC (μg/ml) at 24 hours, MRSA 1” value (MRSA)?
Its value is >128 µg/mL.

What about the “MIC (μg/ml) at 24 hours, MRSA 2” value (MRSA) of the same compound?
Its value is >128 µg/mL.

And the “MIC (μg/ml) at 24 hours, E. coli” value (Escherichia coli)?
The value was >128 µg/mL.

And the “MIC (μg/ml) at 24 hours, P. aeruginosa” value (Pseudomonas aeruginosa)?
Its value is >128 µg/mL.

How did the “activity against VRE among analogues” value (VRE; MIC testing, two VRE strains) turn out when `Nc1nc(N/N=C/c2ccc(Br)cc2)nc(N/N=C/c2ccc(Br)cc2)n1` [NCL212] was run?
Its value is “greatest activity”.

And the “MIC (μg/ml) at 24 hours, VRE 1” value (VRE)?
Its value is 32 µg/mL (≈ 65.3 µM).

And the “MIC (μg/ml) at 24 hours, VRE 2” value (VRE)?
The value was 16 µg/mL (≈ 32.6 µM).

And the VRE (VRE; bioassay ranking, VRE)?
The VRE was 24 µg/mL.

What about the “MIC (μg/ml) at 24 hours, MRSA 1” value (MRSA) of the same compound?
Its value is >128 µg/mL.

What about the “MIC (μg/ml) at 24 hours, MRSA 2” value (MRSA) of the same compound?
Its value is >128 µg/mL and 128 µg/mL.

And the “MIC (μg/ml) at 24 hours, E. coli” value (Escherichia coli)?
Its value is >128 µg/mL.

What about the “MIC (μg/ml) at 24 hours, P. aeruginosa” value (Pseudomonas aeruginosa) of the same compound?
Its value is >128 µg/mL.

For `Nc1nc(N/N=C/C2CCCCC2)nc(N/N=C/C2CCCCC2)n1` [NCL213], which “MIC (μg/ml) at 24 hours, VRE 1” value (VRE) is on record?
The value was >128 µg/mL.

And the “MIC (μg/ml) at 24 hours, VRE 2” value (VRE)?
The value was >128 µg/mL.

What about the “MIC (μg/ml) at 24 hours, MRSA 1” value (MRSA) of the same compound?
Its value is >128 µg/mL.

And the “MIC (μg/ml) at 24 hours, MRSA 2” value (MRSA)?
The value was >128 µg/mL.

What about the “MIC (μg/ml) at 24 hours, E. coli” value (Escherichia coli) of the same compound?
Its value is >128 µg/mL.

What about the “MIC (μg/ml) at 24 hours, P. aeruginosa” value (Pseudomonas aeruginosa) of the same compound?
The value was >128 µg/mL.

For `Nc1nc(N/N=C/c2ccccc2)nc(N/N=C/c2ccccc2)n1` [NCL214], which “MIC (μg/ml) at 24 hours, VRE 1” value (VRE) is on record?
The value was >128 µg/mL.

What about the “MIC (μg/ml) at 24 hours, VRE 2” value (VRE) of the same compound?
Its value is >128 µg/mL.

What about the “MIC (μg/ml) at 24 hours, MRSA 1” value (MRSA) of the same compound?
Its value is >128 µg/mL.

What about the “MIC (μg/ml) at 24 hours, MRSA 2” value (MRSA) of the same compound?
The value was >128 µg/mL.

And the “MIC (μg/ml) at 24 hours, E. coli” value (Escherichia coli)?
Its value is >128 µg/mL.

And the “MIC (μg/ml) at 24 hours, P. aeruginosa” value (Pseudomonas aeruginosa)?
Its value is >128 µg/mL.

What does the source list for `Nc1nc(N/N=C/c2ccc(F)c(F)c2)cc(N/N=C/c2ccc(F)c(F)c2)n1` [NCL222]?
MIC (μg/ml) at 24 hours, VRE 1 (VRE): >128 µg/mL; MIC (μg/ml) at 24 hours, VRE 2 (VRE): >128 µg/mL; MIC (μg/ml) at 24 hours, MRSA 1 (MRSA): >128 µg/mL; MIC (μg/ml) at 24 hours, MRSA 2 (MRSA): >128 µg/mL; MIC (μg/ml) at 24 hours, E. coli (Escherichia coli): >128 µg/mL; MIC (μg/ml) at 24 hours, P. aeruginosa (Pseudomonas aeruginosa): >128 µg/mL

With `CC(=O)Nc1ccc(/C=N/Nc2cc(N/N=C/c3ccc(NC(C)=O)cc3)nc(N)n2)cc1` [NCL223] as the compound, how does the “MIC (μg/ml) at 24 hours, VRE 1” value (VRE) read?
Its value is >128 µg/mL.

And the “MIC (μg/ml) at 24 hours, VRE 2” value (VRE)?
The value was >128 µg/mL.

What about the “MIC (μg/ml) at 24 hours, MRSA 1” value (MRSA) of the same compound?
The value was >128 µg/mL.

And the “MIC (μg/ml) at 24 hours, MRSA 2” value (MRSA)?
Its value is >128 µg/mL.

And the “MIC (μg/ml) at 24 hours, E. coli” value (Escherichia coli)?
The value was >128 µg/mL.

What about the “MIC (μg/ml) at 24 hours, P. aeruginosa” value (Pseudomonas aeruginosa) of the same compound?
The value was >128 µg/mL.

How did the “MIC (μg/ml) at 24 hours, VRE 1” value (VRE) turn out when `CCOC(=O)N(/N=C/c1ccc(Cl)cc1)C(N)=N/N=C/c1ccc(Cl)cc1` [NCL224] was run?
Its value is >128 µg/mL.

What about the “MIC (μg/ml) at 24 hours, VRE 2” value (VRE) of the same compound?
Its value is >128 µg/mL.

What about the “MIC (μg/ml) at 24 hours, MRSA 1” value (MRSA) of the same compound?
The value was >128 µg/mL.

What about the “MIC (μg/ml) at 24 hours, MRSA 2” value (MRSA) of the same compound?
Its value is >128 µg/mL.

And the “MIC (μg/ml) at 24 hours, E. coli” value (Escherichia coli)?
The value was >128 µg/mL.

And the “MIC (μg/ml) at 24 hours, P. aeruginosa” value (Pseudomonas aeruginosa)?
Its value is >128 µg/mL.

With `CC(C)COC(=O)N(N=Cc1ccc(Cl)cc1)C(N)=NN=Cc1ccc(Cl)cc1` [NCL225] as the compound, how does the “MIC (μg/ml) at 24 hours, VRE 1” value (VRE) read?
Its value is >128 µg/mL.

What about the “MIC (μg/ml) at 24 hours, VRE 2” value (VRE) of the same compound?
The value was >128 µg/mL.

And the “MIC (μg/ml) at 24 hours, MRSA 1” value (MRSA)?
Its value is >128 µg/mL.

And the “MIC (μg/ml) at 24 hours, MRSA 2” value (MRSA)?
The value was >128 µg/mL.

And the “MIC (μg/ml) at 24 hours, E. coli” value (Escherichia coli)?
Its value is >128 µg/mL.

And the “MIC (μg/ml) at 24 hours, P. aeruginosa” value (Pseudomonas aeruginosa)?
Its value is >128 µg/mL.

Which “MIC (μg/ml) at 24 hours, VRE 1” value (VRE) does the source give for `CCNC(=O)N(/N=C/c1ccc(Cl)cc1)C(N)=N/N=C/c1ccc(Cl)cc1` [NCL226] here?
Its value is >128 µg/mL.

What about the “MIC (μg/ml) at 24 hours, VRE 2” value (VRE) of the same compound?
Its value is >128 µg/mL.

What about the “MIC (μg/ml) at 24 hours, MRSA 1” value (MRSA) of the same compound?
Its value is >128 µg/mL.

And the “MIC (μg/ml) at 24 hours, MRSA 2” value (MRSA)?
Its value is >128 µg/mL.

And the “MIC (μg/ml) at 24 hours, E. coli” value (Escherichia coli)?
The value was >128 µg/mL.

And the “MIC (μg/ml) at 24 hours, P. aeruginosa” value (Pseudomonas aeruginosa)?
The value was >128 µg/mL.

`N=C(N/N=C/c1ccc(Cl)cc1)N(/N=C/c1ccc(Cl)cc1)C(=O)NCc1ccccc1` [NCL227] was tested. Which “MIC (μg/ml) at 24 hours, VRE 1” value (VRE) did it give?
Its value is >128 µg/mL.

What about the “MIC (μg/ml) at 24 hours, VRE 2” value (VRE) of the same compound?
Its value is >128 µg/mL.

And the “MIC (μg/ml) at 24 hours, MRSA 1” value (MRSA)?
The value was >128 µg/mL.

What about the “MIC (μg/ml) at 24 hours, MRSA 2” value (MRSA) of the same compound?
The value was >128 µg/mL.

And the “MIC (μg/ml) at 24 hours, E. coli” value (Escherichia coli)?
Its value is >128 µg/mL.

And the “MIC (μg/ml) at 24 hours, P. aeruginosa” value (Pseudomonas aeruginosa)?
Its value is >128 µg/mL.

For `CCCCCCNC(=O)N(N=Cc1ccc(Cl)cc1)C(N)=NN=Cc1ccc(Cl)cc1` [NCL228], which “MIC (μg/ml) at 24 hours, VRE 1” value (VRE) is on record?
Its value is >128 µg/mL.

And the “MIC (μg/ml) at 24 hours, VRE 2” value (VRE)?
The value was >128 µg/mL.

And the “MIC (μg/ml) at 24 hours, MRSA 1” value (MRSA)?
Its value is >128 µg/mL.

And the “MIC (μg/ml) at 24 hours, MRSA 2” value (MRSA)?
The value was >128 µg/mL.

What about the “MIC (μg/ml) at 24 hours, E. coli” value (Escherichia coli) of the same compound?
Its value is >128 µg/mL.

And the “MIC (μg/ml) at 24 hours, P. aeruginosa” value (Pseudomonas aeruginosa)?
Its value is >128 µg/mL.
